Experimental data from article PMC5532651, “Bistratamides M and N, Oxazole-Thiazole Containing Cyclic Hexapeptides Isolated from Lissoclinum bistratum Interaction of Zinc (II) with Bistratamide K” (Marine Drugs, 2017).

Key:
[1] = system: human tumor cell lines A-549 (lung), HT-29 (colon), MDA-MB-231 (breast) and PSN1 (pancreas); experiment: Cytotoxicity against four human tumor cell lines (summary in words); type: cell-based; settings: GI50 values in the micromolar range
Experimental: (§1) The cytotoxic activity of compounds 1 and 2 was tested against NSLC A-549 human lung carcinoma cells, MDA-MB-231 human breast adenocarcinoma cells, HT-29 human colorectal carcinoma cells, and PSN1 (human pancreatic carcinoma cells). The concentration giving 50% inhibition of cell growth (GI50) was calculated according to the procedure described in the literature. Cell survival was estimated using the National Cancer Institute (NCI) algorithm. Three dose response parameters were calculated for 1 and 2.

[2] = system: recombinant human topoisomerase I; experiment: Enzymatic Topoisomerase 1 (Top1) assay; type: biochemical; settings: up to highest concentration tested 100 μM (range 100 to 0.2 μM); 50 pM enzyme; 1 h preincubation, 1 h reaction, room temperature, pH 8.0; H19 dye fluorescence
Experimental: The activity of human topoisomerase I was determined based on the increase in fluorescence of a commercial dye (“H19”, Profoldin, Westborough, MA, USA) when interacting with DNA and the higher number of interaction points present in supercoiled DNA with respect to relaxed DNA. Therefore, the activity of the enzyme causes a decrease of fluorescence intensity when the probe is added. The enzyme reaction is performed in a final volume of 20 μL in 384 black wells. Compounds 1 and 2, at twice their final concentrations, were mixed with 50 pM recombinant human topoisomerase I (Profoldin, Westborough, MA, USA) in 10 μL of 10 mM Tris-HCl pH 8.0 with 150 mM sodium chloride, 3 mM magnesium chloride and 5% (v/v) glycerol and incubated for 1 h at room temperature. Then, reaction was started by the addition of 10 μL of supercoiled DNA (Profoldin, Westborough, MA, USA) at 25 μg/mL in the same buffer and the mixture was incubated at room temperature for 1 h. […] After 1 h at room temperature the degree of conversion from supercoiled to relaxed DNA was determined by monitoring fluorescence intensity (excitation at 485 nm, emission at 535 nm) in a microtiter plate reader. […] IC50 values were calculated by fitting the results to a typical four parameters logistic curve by nonlinear regression analysis.

[3] = system: MDA-MB-231 human breast adenocarcinoma cells; experiment: Cell proliferation / cytotoxicity, MDA-MB-231 breast; type: cell-based; settings: for LC50: concentration producing 50% cell death vs control; for GI50: concentration producing 50% inhibition of cell growth vs control, NCI algorithm; for TGI: concentration producing total growth inhibition vs control
Experimental: as §1

[4] = system: HT-29 human colorectal carcinoma cells; experiment: Cell proliferation / cytotoxicity, HT-29 colon; type: cell-based; settings: for LC50: concentration producing 50% cell death vs control; for GI50: concentration producing 50% inhibition of cell growth vs control, NCI algorithm; for TGI: concentration producing total growth inhibition vs control
Experimental: as §1

[5] = system: PSN1 (human pancreatic carcinoma cells); experiment: Cell proliferation / cytotoxicity, PSN1 pancreas; type: cell-based; settings: for LC50: concentration producing 50% cell death vs control; for GI50: concentration producing 50% inhibition of cell growth vs control, NCI algorithm; for TGI: concentration producing total growth inhibition vs control
Experimental: as §1

[6] = system: NSLC A-549 human lung carcinoma cells; experiment: Cell proliferation / cytotoxicity, NSLC A-549 lung; type: cell-based; settings: for LC50: concentration producing 50% cell death vs control; for GI50: NCI algorithm; for TGI: concentration producing total growth inhibition vs control
Experimental: as §1

[7] = concentration producing 50% inhibition of cell growth vs control

Row | Structure (SMILES) | cytotoxic activity (in words) [1] | Top1 inhibition [2] | LC50 [3] [µM] | GI50 [3] [µM] | TGI [3] [µM] | LC50 [4] [µM] | GI50 [4] [µM] | TGI [4] [µM] | LC50 [5] [µM] | GI50 [5] [µM] | TGI [5] [µM] | LC50 [6] [µM] | GI50 [6, 7] [µM] | TGI [6] [µM] | GI50 ([3]; Homo sapiens) [µM] | GI50 ([4]; Homo sapiens) [µM] | GI50 ([5]; Homo sapiens) [µM] | GI50 ([6]; Homo sapiens, A549, concentration producing 50% inhibition of cell growth vs control) [µM]
1 | CC[C@H](C)[C@@H]1NC(=O)c2csc(n2)[C@H](C)NC(=O)c2coc(n2)[C@H](C)NC(=O)c2csc1n2 [Bistratamide M (1), Bistratamide M] | moderate cytotoxic activity with GI50 values in the micromolar range | failed to show any hint of inhibition even at the highest concentration tested | >20.0 | 18 | >20.0 | >20.0 | 16 | >20.0 | >20.0 | 9.8 | >20.0 | >20.0 | 9.1 | >20.0 | – | – | – | –
2 | CC[C@H](C)[C@@H]1NC(=O)c2csc(n2)[C@@H](C)NC(=O)c2coc(n2)[C@H](C)NC(=O)c2csc1n2 [Bistratamide N (2), Bistratamide N] | moderate cytotoxic activity with GI50 values in the micromolar range | failed to show any hint of inhibition even at the highest concentration tested | >20.0 | > 20 | >20.0 | >20 | 13 | >20 | >20.0 | 15 | >20.0 | >20.0 | 11 | >20.0 | – | – | – | –
3 | COc1cccc2c1C(=O)c1c(O)c3c(c(O)c1C2=O)C[C@@](O)(C(=O)CO)C[C@@H]3O[C@H]1C[C@H](N)[C@H](O)[C@H](C)O1 [Doxorubicin, reference compound] | – | – | 2.4 | – | 0.5 | >17.2 | – | 0.9 | 3.1 | – | 0.5 | >17.2 | – | 0.9 | 0.2 | 0.3 | 0.2 | 0.2
